Experimental data published in patent publication US12419875B2, “Use of Axitinib and analogs thereof in preparing blood-brain barrier permeability regulator” (ZHEJIANG UNIVERSITY, priority 2018, dated 2025).

Tests used:
Claudin-5 = experiment: Pathological blood-brain barrier Transwell model (bEnd.3 co-incubated with U87 MG), Claudin-5 immunofluorescence; format: cell-based; conditions: bEnd.3/U87 MG co-incubation, 24 hours; FIG. 8
Protocol: A transwell model of co-incubation of brain microvascular endothelial cells bEnd.3 and glioma cells U87 MG simulates a pathological blood-brain barrier. Axitinib was allowed to act on the Transwell chamber. After 24 hours, immunofluorescent staining was performed on bEnd.3 cells on the Transwell chamber membrane. A physiological blood-brain barrier simulated by a Transwell model of brain microvascular endothelial cell bEnd.3 was used as a positive control group. […] Panel B is the result of fluorescence semi-quantitative analysis of Claudin-5 expression by Image J (n=3).
Axitinib was added to the Transwell chamber. After the drug was allowed to act for 24 hours, the Transwell cell with bEnd.3 cells grown was transferred to another 12-well plate, washed with PBS for three times, fixed with 4% formaldehyde, and blocked with 10% bovine serum albumin for 30 minutes. Thereafter, Claudin-5 primary antibody was added and incubated at 4° C. overnight, and finally was incubated with fluorescently-labeled secondary antibody for 1 hour. The nucleus was counterstained with DAPI.

[1] = system: pathological blood-brain barrier (bEnd.3 cells co-incubated with U87 MG glioma cells); experiment: Pathological blood-brain barrier Transwell model (bEnd.3 co-incubated with U87 MG), cell transmembrane resistance; format: cell-based; conditions: 24 hours
Protocol: A Transwell model of co-incubation of brain microvascular endothelial cells bEnd.3 and glioma cells U87 MG simulates a pathological blood-brain barrier. Axitinib at different concentrations (0, 0.05 μg/mL, 0.1 μg/mL, 0.5 g/mL, 1 μg/mL, 4 μg/mL, 5 μg/mL, 10 μg/mL, 20 μg/mL) was allowed to act on the Transwell chamber. After 24 hours, cell transmembrane resistances were detected by a cell resistance meter. A physiological blood-brain barrier simulated by a Transwell model of brain microvascular endothelial cell bEnd.3 was used as a positive control (n=5).
A Transwell model of co-incubation of brain microvascular endothelial cells bEnd.3 and glioma cells U87 MG simulates a pathological blood-brain barrier. Axitinib (10 μM), an Axitinib analog of phosphatidylinositol kinase (PI3K) inhibitor LY294002 (10 μM), protein kinase B (AKT) agonist SC79 (10 μM) were added into the Transwell chamber. After 24 hours, cell transmembrane resistance was detected by a cell resistance meter. A physiological blood-brain barrier simulated by a Transwell model of brain microvascular endothelial cell bEnd.3 was used as a positive control (n=5).
(§5) U87 MG glioma cells were used as brain tumor model cells. 1.5 mL suspension of well-grown U87 MG cell suspension was inoculated in a 12-well plate at a cell density of 2×10^5/well. Incubation was continued at 37° C. and 5% CO2 until the cells adhere. Then, the physiological blood-brain barrier as constructed by Method 1 in the Example 1, i.e., the Transwell chamber with bEnd.3 cells grown, was transferred to the 12-well plate with U87 MG cells grown. Co-culture was further continued for 24 hours to obtain a cell model of pathological blood-brain barrier.
The physiological blood-brain barrier as constructed by Method 2 in the Example 1 was used as a model. Axitinib at different concentrations was added to the Transwell chamber for stimulation.
The physiological blood-brain barrier and the pathological blood-brain barrier as constructed in Method 1 and Method 2 in the Example 1 were used as models, respectively. Axitinib (10 μM), an Axitinib analog of phosphatidylinositol kinase (PI3K) inhibitor LY294002 (10 μM), protein kinase B (AKT) agonist SC79 (10 μM) were added into the Transwell chamber of the pathological blood-brain barrier model as constructed in Method 2 in the Example 1. After 24 hours, the Transwell chamber with bEnd.3 cells grown was transferred to another 12-well plate, washed with PBS for 3 times, and 0.5 mL HBSS nutrient solution was added to the chamber, and the outer chamber was supplemented with 1.5 mL HBSS nutrient solution. The cells were equilibrated at 37° C. for 15 minutes. Cell transmembrane resistance was detected by a cell resistance meter.

Claudin-5/Occludin = experiment: Pathological blood-brain barrier Transwell model, Claudin-5/Occludin immunofluorescence; format: cell-based; conditions: 10 μM, 24 hours; FIG. 12
Protocol: A Transwell model of co-incubation of brain microvascular endothelial cells bEnd.3 and glioma cells U87 MG simulates a pathological blood-brain barrier. Axitinib (10 μM), an Axitinib analog of phosphatidylinositol kinase (PI3K) inhibitor LY294002 (10 μM), protein kinase B (AKT) agonist SC79 (10 μM) were added into the Transwell chamber. After 24 hours, immunofluorescent stain was performed on bEnd.3 cells on the Transwell chamber membrane. A physiological blood-brain barrier simulated by a Transwell model of brain microvascular endothelial cell bEnd.3 was used as a positive control.
as §5

bEnd.3 cells = experiment: Cell survival rate by tetrazolium blue colorimetry, bEnd.3 cells; format: cell-based; conditions: 10 μM (therapeutic dose), FIGS. 13 and 14
Protocol: (§1) FIG. 13: Evaluation of cell survival rate in a Transwell model. A Transwell model of co-incubation of brain microvascular endothelial cells bEnd.3 and glioma cells U87 MG simulates a pathological blood-brain barrier. Axitinib (10 μM) and an Axitinib analog of phosphatidylinositol kinase (PI3K) inhibitor LY294002 (10 μM) were added into the Transwell chamber. After 24 hours, the survival rate of bEnd.3 cells in the Transwell chamber (Panel A) and U87 MG cells in the Transwell outer chamber (Panel B) were detected by tetrazolium blue colorimetry (n=3).
(§2) FIG. 14: Evaluation of Cytotoxicity for Axitinib and an analog thereof. […] Cell survival rate was detected by tetrazolium blue colorimetry. […]
(§3) The physiological blood-brain barrier and the pathological blood-brain barrier as constructed in Method 1 and Method 2 in the Example 1 were used as models, respectively. […] Absorbance at 570 nm was measured with a microplate reader. The survival rate of cells was calculated according to the following formula: Survival rate of cells (%)=(absorbance value of a test group/absorbance value of a control group)×100%
(§4) In addition, bEnd.3 cells and U87 MG glioma cells were used as model cells to evaluate the cytotoxicity of Axitinib and an Axitinib analog of phosphatidylinositol kinase (PI3K) inhibitor LY294002 with the tetrazolium blue colorimetric method. […] Absorbance at 570 nm was measured with a microplate reader.

U87 MG glioma cells = experiment: Cell survival rate by tetrazolium blue colorimetry, U87 MG cells; format: cell-based; conditions: U87MG cells, 10 μM (therapeutic dose); FIGS. 13 and 14
Protocol: as §1, §2, §3, §4

[2] = system: pathological blood-brain barrier (bEnd.3 cells with tumor cell culture); experiment: Tumor cell culture co-incubated with bEnd.3 cells (U87MG removed), FITC-dextran transmembrane transport; format: cell-based; conditions: tumor cell culture kept, 10 μM, 24 hours, FIG. 16
Protocol: FIG. 16: Co-incubation of a tumor cell culture and bEnd.3 cells in vitro, and FITC-dextran transmembrane transport efficiency. A Transwell model of co-incubation of brain microvascular endothelial cells bEnd.3 and glioma cells U87 MG simulates a pathological blood-brain barrier. Once a pathological blood-brain barrier model was formed, U87MG glioma cells in the outer chamber of Transwell were removed, while the tumor cell cultures were remained. Axitinib (10 μM) and an Axitinib analog of phosphatidylinositol kinase (PI3K) inhibitor LY294002 (10 μM) were added to the Transwell chamber. After 24 hours, the Transwell chamber and the outer chamber were cleaned with PBS, and a FITC-dextran solution in HBSS was added to the Transwell chamber, and was allowed to act for 4 hours. The result as shown in the figure was the FITC-dextran concentration of the Transwell outer chamber as detected by a fluorescence spectrophotometer. […]
The physiological blood-brain barrier and the pathological blood-brain barrier as constructed in Method 1 and Method 2 in the Example 1 were used as models, respectively. […] After the cells were incubated at 37° C. in the dark for 4 hours, concentration of FITC-dextran transferred to the outer chamber via the Transwell chamber was detected with a fluorescence spectrophotometer.

U87-luci glioma = experiment: Glioma growth (bioluminescent imaging) and life cycle, in situ glioma model; format: in vivo, BABL/c nude mice; conditions: 10 mg/kg tail vein
Protocol: Administration was performed for 7 consecutive days. Growth of glioma was monitored by a bioluminescent imaging technology. […] A physiological saline group was used as control.
Male BABL/c nude mice (20±2 g) were used as the model animals. U87-luci glioma cells expressing luciferase were inoculated in the striatum area of nude mice at a concentration of 5×10^5 cells/5 μL by means of a brain stereotaxic instrument (inoculation coordinates, 0.8 mm on the anterior side of bregma, 2 mm on the right side, and 3 mm in depth), to construct an in situ glioma model. […] Administration was performed for 7 consecutive days. Growth of glioma was monitored by a bioluminescent imaging technology.

[3] = system: pathological blood-brain barrier; experiment: Evans blue permeation into the brain after a single dose, model of Parkinson's disease; format: in vivo, C57/BL6 mice; conditions: Parkinson's disease mice, 10 mg/kg tail vein, Evans blue after 24 hours; vs Parkinson's control; FIGS. 24 and 25

CNC(=O)c1ccccc1Sc1ccc2c(/C=C/c3ccccn3)n[nH]c2c1 [Axitinib, N-methyl-2-((3-((1E)-2-(pyridine-2-yl)ethenyl)-1H-indazol-6-yl)sulfanyl)benzamide]
Expression of tight junction protein Claudin-5 (Claudin-5): reduce down-regulation of expression of the blood-brain barrier tight junction protein of Claudin-5 | Cell transmembrane resistance (blood-brain barrier function) ([1]; 10 μM, FIG. 10): promote recovery of a blood-brain barrier function from a pathologically impaired state to a state close to a physiological barrier | Concentration at which blood-brain barrier permeability is effectively reduced (cell transmembrane resistance) ([1]; FIG. 9): 0.5˜20 μg/mL | Concentration at which blood-brain barrier permeability is effectively reduced (cell transmembrane resistance) ([1]; FIG. 9, same range in μM): 1.29 to 51.75 µM | Cell transmembrane resistance, dependence on concentration ([1]; Axitinib 0-20 μg/mL, FIG. 9): dose-dependent | Expression of tight junction protein Claudin-5/Occludin (Claudin-5/Occludin): reduce the degree to which pathological blood-brain barrier tight junction protein of Claudin-5/Occludin is down-regulated | Cytotoxicity (bEnd.3 cells): do not produce significant cytotoxicity | Cytotoxicity (U87 MG glioma cells): do not produce significant cytotoxicity | FITC-dextran transmembrane transport (blood-brain barrier permeability) [2]: blood-brain barrier permeability is reduced | Growth of glioma in situ (U87-luci glioma; 7 consecutive days from Day 4, vs saline control, FIG. 20): significantly inhibited | Life cycle of the animal (U87-luci glioma; 7 consecutive days, FIG. 21): significantly prolonged | Amount of Evans blue permeated into the brain [3]: the amount of Evans blue permeated into the brain is reduced
